Source: US12121521B2, “Uses of salt-inducible kinase (SIK) inhibitors for treating osteoporosis” (The General Hospital Corporation, priority 2016, dated 2024)
Entries after “also recorded” stand apart in the source; their conditions may differ.

What was measured:
[1] = In vivo toxicity experiments (weight, CBC, serum chemistry); design: species or system mouse
Text: Blood was obtained for the complete blood count (CBC) measurement, and serum was obtained for the glucose, blood urea nitrogen (BUN), cholesterol, triglycerides, ALT, Creatine kinase (CK), amylase, and total protein measurements. […] “WBC” refers to “white blood cell”. “Hgb” refers to “hemoglobin”. “Pit” refers to “platelet”.

[2] = Half-life in murine hepatic microsomes; type: in vitro ADME; conditions: compared to YKL-04-114 and HG-9-91-01; FIG. 16
Description: FIG. 16: The half-life (in minute) of the indicated compound was measured in murine hepatic microsomes.

[3] = tested on: C57B/6 mice; assay: Acute YKL-05-093 administration: bone gene expression and sclerostin immunohistochemistry; type: in vivo, mouse; conditions: 2 hours
Description: FIGS. 7A to 7I: Effects of YKL-05-093 administration on bone gene expression in vivo. (FIGS. 7A and 7B) 8 week old C57B/6 mice (n=4/group) were treated with the indicated dose of YKL-05-093 via intraperitoneal injection. 2 hours later, bone RNA was isolated and transcript abundance was measured by RT-qPCR. # indicates p<0.05 versus vehicle, and * indicates p<0.01 versus vehicle by Student's unpaired 2 tailed t-test. (FIG. 7C) Left: sclerostin immunohistochemistry was performed 2 hours after intraperitoneal injection with either vehicle or YKL-05-093 (20 μmol/kg). Right: quantification of sclerostin-positive cortical osteocytes, n=4 mice per treatment group, * indicated p<0.01 versus vehicle. (FIGS. 7D to 7I) Genes regulated by PTH and YKL-05-093 in vitro are also regulated by YKL-05-093 in vivo. Mice were treated with YKL-05-093 (20 μmol/kg) and bone RNA collected 2 hours later as in FIG. 7A. * indicates p<0.05 versus vehicle. In FIGS. 7A, 7B, and 7D to 7I, “umol” denotes μmol. In FIGS. 7D to 7I, each of the right bars corresponds to YKL-05-093.
All animals were housed in the Center for Comparative Medicine at the Massachusetts General Hospital, and all experiments were approved by the hospital's Subcommittee on Research Animal Care. HDAC5-null mice (70) and HDAC4 f/f mice (71) were generously provided by Dr. Eric Olson (University of Texas Southwestern Medical Center, Dallas, TX) and were backcrossed to C57B/6 mice for at least 6 generations. DMP1-Cre mice (27) were generously provided by Dr. Jian (Jerry) Feng (Texas A&M University, Baylor College of Dentistry, Dallas, TX). “DKO” HDAC4/5 mice were of the following genotype: HDAC4f/f; HDAC5−/−; DMP1-Cre. SIK2 f/f mice were as described (40), and were bred to DMP1-Cre animals to generate SIK2^OcyKO mice. ES cells carrying the targeted SOST allele Sost^tm1(KOMP)Vleg, in which the SOST coding sequence has been replaced by LacZ and floxed Neo cassette, were obtained from the Knockout Mouse Project (KOMP) Repository. Clone VG10069-BE8 was injected into blastocysts, and the resulting SOST+/− mice were crossed to HDAC5 mutant animals to generate compound heterozygous mice. In all instances, skeletal phenotypes were evaluated in 8 week-old sex-matched littermates. For acute effects of PTH on bone gene expression, animals were treated with PTH (1-34, 300 μg/kg, subcutaneous administration) and then sacrificed 90 minutes later. For acute effects of YKL-05-093 on bone gene expression, animals were treated with the indicated doses of compound (dissolved in PBS+25 mM HCl) or solvent via intraperitoneal injections, and sacrificed 2 hours later. […]

## COc1ccc(N2C(=O)N(c3c(C)cccc3Cl)Cc3cnc(Nc4ccc(C5CCN(C)CC5)cc4OC)nc32)nc1 [YKL-05-099]
[1]; 4 week treatment
  growth or peripheral blood counts: Neither PTH nor YKL-05-099 altered growth or peripheral blood counts
[1]; 4 week treatment (weeks 20-24)
  weight gain: normal weight gain
[1]; 4 week treatment, FIGS. 36A to 36D
  toxicity judged from hematology data: not toxic under the test conditions

## COc1ccc(N2C(=O)N(c3c(C)cccc3C)Cc3cnc(Nc4ccc(C5CCN(C)CC5)c(OC)c4)nc32)c(OC)c1 [YKL-05-093]
[2]
  half-life / stability in murine hepatic microsomes: improved half-life; also recorded: somewhat improved stability
[3]; 20 μmol/kg
  bone expression of genes co-regulated by PTH and YKL-05-093 in vitro: significant regulation of VDR, WNT4, NR4A2, NUAK1, PDGFA, and CD200 expression
  sclerostin protein levels by immunohistochemistry: reductions in sclerostin protein levels
[3]; intraperitoneal
  RANKL in osteocyte-enriched bone RNA: RANKL up-regulation
  SOST in osteocyte-enriched bone RNA: dose-dependent SOST suppression
